Literature values as cited in article PMC8999965 (Materials, 2022).

Parameters: method as in earlier work
Conditions: for EI(PCOP=0), environmental index excluding Photochemical Oxidation Potential: PCOP score excluded from summation; for EI, overall environmental index: sum of toxicity and environmental impact scores

Structure (SMILES) | EI(PCOP=0), environmental index excluding Photochemical Oxidation Potential | EI, overall environmental index
CCN1CCOCC1 [4-ethylmorpholine] | 2.12 | 2.12
O=CN1CCOCC1 [4-formylmorpholine] | 0.51 | 0.51
C[S+](C)[O-] [DMSO, dimethyl sulfoxide] | 0.26 | 11.68
CC(C)=O [acetone] | 0.66 | 1.27
CC#N [acetonitrile] | 1.88 | 1.88
C1COCCN1 [morpholine] | 2.95 | 2.95
